Measured values published in patent US12495798B2, “Nicotinamide compound and herbicidal composition comprising compound” (KOREA RESEARCH INSTITUTE OF CHEMICAL TECHNOLOGY, priority 2019, dated 2025).

Key:
Type in all cases: in vivo
[1] = tested on: sorghum; experiment: Herbicidal activity test against upland field weeds (foliar treatment test); design: key to Foliar treatment herbicidal activity, Sorghum: 0 (no control); 100 (complete control); conditions: 50 g ai/ha, scale 0-100
Procedure, shortened: (§1)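 Visual 0–100 control ratings relative to untreated plants, taken 14 (or 21) days after spraying foliage at 50 or 75 g a.i./ha. Spray solution: 50% acetone with 0.1% Tween-20; plants kept in greenhouse at 30±5 °C, 14 h light/10 h dark.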

[2] = tested on: crabgrass; experiment: as above; conditions: 50 g ai/ha, scale 0-100
Procedure, shortened: as §1

[3] = tested on: black nightshade; experiment: as above; design: key to Foliar treatment herbicidal activity, black nightshade: 0 (no control); 100 (complete control); conditions: 50 g ai/ha, scale 0-100
Procedure, shortened: as §1

[4] = tested on: velvetleaf; experiment: as above; design: key to Foliar treatment herbicidal activity, velvet leaf: 0 (no control); 100 (complete control); conditions: 50 g ai/ha
Procedure, shortened: as §1

[5] = tested on: sorghum; experiment: Herbicidal activity test against upland field weeds (soil treatment test); design: key to Soil treatment herbicidal activity, Sorghum: 0 (no control); 100 (complete control); conditions: 50 g ai/ha, scale 0 (no control) to 100 (complete control)
Procedure, shortened: (§2)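 Weed control scored visually on a 0 (none) to 100 (complete) scale versus untreated pots at 14 or 21 days in greenhouse (30±5 °C, 14 h light). Test compounds, 50 or 75 g a.i./ha in 50% acetone/0.1% Tween-20, hand-sprayed onto soil one day post-sowing.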

[6] = tested on: quack grass; experiment: as above; design: key to Soil treatment herbicidal activity, quack grass: 0 (no control); 100 (complete control); conditions: 50 g ai/ha, scale 0 (no control) to 100 (complete control)
Procedure, shortened: as §2

[7] = tested on: velvetleaf; experiment: as above; design: key to Soil treatment herbicidal activity, velvet leaf: 0 (no control); 100 (complete control); conditions: 50 g ai/ha, scale 0 (no control) to 100 (complete control)
Procedure, shortened: as §2

[8] = tested on: corn; experiment: Phytotoxicity test for upland field crops (foliar treatment test); design: key: 0 (no harm); 9 (complete withered)
Procedure, shortened: (§3)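 Post-emergence spray at 19–300 g a.i./ha (acetone/Tween-20 diluent, 100 ml/m²) onto greenhouse-grown plants. Damage rated 7 and 14 (optionally 21) days later on a 0–9 scale relative to untreated plants.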

[9] = tested on: cotton; experiment: as above; design: key: 0 (no harm); 9 (complete withered)
Procedure, shortened: as §3

[10] = tested on: rice; experiment: as above; design: key: 0 (no harm); 9 (complete withered)
Procedure, shortened: as §3

[11] = tested on: soybean; experiment: as above; design: key: 0 (no harm); 9 (complete withered)
Procedure, shortened: as §3

[12] = tested on: wheat; experiment: as above; design: key: 0 (no harm); 9 (complete withered)
Procedure, shortened: as §3

[13] = 50 g ai/ha, Corn (7 days after treatment)
[14] = 50 g ai/ha, Corn (14 days after treatment)
[15] = 100 g ai/ha, Corn (7 days after treatment)
[16] = 100 g ai/ha, Corn (14 days after treatment)
[17] = 50 g ai/ha, Cotton (7 days after treatment)
[18] = 50 g ai/ha, Cotton (14 days after treatment)
[19] = 100 g ai/ha, Cotton (7 days after treatment)
[20] = 100 g ai/ha, Cotton (14 days after treatment)
[21] = 50 g ai/ha, Rice (7 days after treatment)
[22] = 50 g ai/ha, Rice (14 days after treatment)
[23] = 100 g ai/ha, Rice (7 days after treatment)
[24] = 100 g ai/ha, Rice (14 days after treatment)
[25] = 50 g ai/ha, Soybean (7 days after treatment)
[26] = 50 g ai/ha, Soybean (14 days after treatment)
[27] = 100 g ai/ha, Soybean (7 days after treatment)
[28] = 100 g ai/ha, Soybean (14 days after treatment)
[29] = 50 g ai/ha, Wheat (7 days after treatment)
[30] = 50 g ai/ha, Wheat (14 days after treatment)
[31] = 100 g ai/ha, Wheat (7 days after treatment)
[32] = 100 g ai/ha, Wheat (14 days after treatment)

Row | Compound | Foliar treatment phytotoxicity, Corn [8, 13] | Foliar treatment phytotoxicity, Corn [8, 14] | Foliar treatment phytotoxicity, Corn [8, 15] | Foliar treatment phytotoxicity, Corn [8, 16] | Foliar treatment phytotoxicity, Cotton [9, 17] | Foliar treatment phytotoxicity, Cotton [9, 18] | Foliar treatment phytotoxicity, Cotton [9, 19] | Foliar treatment phytotoxicity, Cotton [9, 20] | Foliar treatment phytotoxicity, Rice [10, 21] | Foliar treatment phytotoxicity, Rice [10, 22] | Foliar treatment phytotoxicity, Rice [10, 23] | Foliar treatment phytotoxicity, Rice [10, 24] | Foliar treatment phytotoxicity, Soybean [11, 25] | Foliar treatment phytotoxicity, Soybean [11, 26] | Foliar treatment phytotoxicity, Soybean [11, 27] | Foliar treatment phytotoxicity, Soybean [11, 28] | Foliar treatment phytotoxicity, Wheat [12, 29] | Foliar treatment phytotoxicity, Wheat [12, 30] | Foliar treatment phytotoxicity, Wheat [12, 31] | Foliar treatment phytotoxicity, Wheat [12, 32] | further results
1 | COC(=O)OC(C)N(C(=O)c1ccc(C(F)(F)F)nc1COCc1nnn(C)n1)c1nnnn1C (stereo not drawn) [Compound No. 4-4, methyl(1-(N-(1-methyl-1H-tetrazol-5-yl)-2-(((2-methyl-2H-tetrazol-5-yl)methoxy)methyl)-6-(trifluoromethyl)nicotinamido)ethyl)carbonate] | 0 | 0 | 0 | 0 | 0 | 0 | 0 | 0 | 4 | 4 | 4 | 4 | 0 | 0 | 0 | 0 | 1 | 0 | 2 | 2 | Foliar treatment herbicidal activity, Sorghum [1]: 100; Foliar treatment herbicidal activity, Crabgrass [2]: 98; Foliar treatment herbicidal activity, black nightshade [3]: 100; Foliar treatment herbicidal activity, velvet leaf ([4]; scale 0-100): 100; Soil treatment herbicidal activity, Sorghum [5]: 0; Soil treatment herbicidal activity, quack grass [6]: 0; Soil treatment herbicidal activity, velvet leaf [7]: 100
2 | Cn1nc(COCc2nc(C(F)(F)F)ccc2C(=O)Nc2nnnn2C)nc1Br [Compound No. 2-136, 2-(((5-bromo-1-methyl-1H-1,2,4-triazol-3-yl)methoxy)methyl)-N-(1-methyl-1H-tetrazol-5-yl)-6-(trifluoromethyl)nicotinamide] | 0 | 0 | 2 | 3 | 3 | 6 | 3 | 8 | 4 | 6 | 5 | 7 | 4 | 6 | 4 | 6 | 0 | 0 | 0 | 0 | plant injury at 50 g/ha ([1]; Sorghum): 20%; pest or weed control at 50 g/ha ([2]; Digitaria sanguinalis): 60%; pest or weed control at 50 g/ha ([3]; Solanum nigrum): 95%; pest or weed control at 50 g/ha ([4]; Abutilon theophrasti, scale 0-100, read-out: Foliar treatment herbicidal activity, velvet leaf): 40%
